IC50 data for 23 compounds are collected here from US9701672B2, “Dihydropyridinone MGAT2 inhibitors for use in the treatment of metabolic disorders” (BRISTOL-MYERS SQUIBB COMPANY, priority 2014, dated 2017).

The target in the first test is human MGAT-2 (Homo sapiens (Human), UniProt Q3SYC2). Briefly: MGAT LCMS assay (h-MGAT LCMS). Type of test: biochemical. The note with it: human MGAT2. How it is done: The MGAT enzyme reactions were performed in Corning FALCON® 96-well polypropylene plates, in a total volume of 60 μL of 50 mM potassium phosphate buffer pH 7.4, containing a final concentration of 100 μM 2-oleoylglycerol, 15 μM oleoyl-coenzyme A and 0.0013 μg/μL human or mouse MGAT-2 or 0.0026 μg/μL rat recombinant MGAT-2 membranes expressed in Sf9 cells. Assay plates were run through a fully automated robotics system and shaken for 5 seconds every minute for a total 10 minutes. The reactions were then quenched with 120 μL of ice cold methanol containing 1 μg/mL 1,2-distearoyl-rac-glycerol as the internal standard. Plates were shaken for 2 minutes and spun down to remove protein precipitation. After the spin, samples were transferred to LC/MS compatible PCR plates. For LC/MS analysis, a ThermoFisher Surveyor pump, utilizing a Waters […]® C8, 50×2.1 mm column, was used for the chromatography of enzyme products. The buffer system consists of 0.1% formic acid in water with a mobile phase consisting 0.1% formic acid in methanol. The shallow gradient is 90-100% mobile phase in 0.2 min with a total run time of 2.3 min. The first 0.5 minutes of each injection was diverted to waste to eliminate the presence of phosphate buffer in the enzymatic reaction. The column was run at 0.6 mL/min and a temperature of 65° C. Mass spectrometry analysis of the samples was performed on a ThermoFisher Quantum Triple quad utilizing APCI (+) as the mode of ionization. Data was acquired in Single Ion Monitoring (SIM) mode analyzing Diolein=m/z 603.6 (PRODUCT) and 1,2-distearoyl-rac-glycerol (IS)=m/z 607.6. The ratio of Diolein to internal standard (Peak Area Ratio) is utilized to calculate IC50 values.
Sequence of human MGAT-2 (Q3SYC2 whole entry): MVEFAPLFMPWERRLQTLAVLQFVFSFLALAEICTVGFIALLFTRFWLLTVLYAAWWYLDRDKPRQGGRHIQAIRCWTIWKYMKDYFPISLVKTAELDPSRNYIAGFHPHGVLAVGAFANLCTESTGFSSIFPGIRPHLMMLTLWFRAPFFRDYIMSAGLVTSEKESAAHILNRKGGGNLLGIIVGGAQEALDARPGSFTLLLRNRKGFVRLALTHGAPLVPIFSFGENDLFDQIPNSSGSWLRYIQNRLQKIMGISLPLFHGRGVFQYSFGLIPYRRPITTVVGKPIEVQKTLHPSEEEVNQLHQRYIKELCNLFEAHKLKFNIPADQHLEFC
“NT” denotes “Not tested”.
The term IC50 denotes the concentration needed to halve the response being measured. Read a low IC50 as inhibition by little substance. In turn, `Cc1csc(C2=C(c3nnn[nH]3)C(=O)N[C@@](c3ccc(OCCCC(F)(F)F)cc3)(C(F)(F)F)C2)c1` [Example 10] yielded a half-maximal inhibitory concentration (IC50) of 2000 to 10000 nM.

The same test, now with this note: human MGAT2 membranes expressed in Sf9 cells; 100 μM 2-oleoylglycerol, 15 μM oleoyl-coenzyme A.
`O=C1N[C@@](c2ccc(OCCCC(F)(F)F)cc2)(C(F)(F)F)CC(c2ccc(C3CC3)s2)=C1c1nnn[nH]1` [Example 1, (S)-4-(5-Cyclopropylthiophen-2-yl)-3-(1H-tetrazol-5-yl)-6-(4-(4,4,4-trifluorobutoxy)phenyl)-6-(trifluoromethyl)-5,6-dihydropyridin-2(1H)-one] came in with an IC50 of 2.5 nM. In turn, `Cc1ccc(C2=C(c3nnn[nH]3)C(=O)N[C@@](c3ccc(OCCCC(F)(F)F)cc3)(C(F)(F)F)C2)s1` [Example 2] gave an IC50 of 41 nM.

As to `O=C1N[C@@](c2ccc(OCCCC(F)(F)F)cc2)(C(F)(F)F)CC(c2ccc(Cl)s2)=C1c1nnn[nH]1` [Example 3], half-maximal inhibition (IC50) was put at 370 nM. Compound `CCCCCCC#C[C@]1(C(F)(F)F)CC(c2ccc(Cl)s2)=C(c2nnn[nH]2)C(=O)N1` [Example 5] registered an IC50 of 7.8 nM. Same read-out and setting: with `CCCCCCC#C[C@]1(C(F)(F)F)CC(c2ccc(Br)s2)=C(c2nnn[nH]2)C(=O)N1` [Example 6] the figure was 2.2 nM; with `O=C1N[C@@](c2ccc(OCCCC(F)(F)F)cc2)(C(F)(F)F)CC(c2cc3ccccc3s2)=C1c1nnn[nH]1` [Example 7], 9 nM; with `CCc1ccc(C2=C(c3nnn[nH]3)C(=O)N[C@@](c3ccc(OCCCC(F)(F)F)cc3)(C(F)(F)F)C2)s1` [Example 9], 32 nM. Take `Cc1ccsc1C1=C(c2nnn[nH]2)C(=O)N[C@@](c2ccc(OCCCC(F)(F)F)cc2)(C(F)(F)F)C1` [Example 11]: the 50% inhibitory concentration (IC50) came out at 873 nM.

Compound `CN(C)Cc1ccc(C2=C(c3nnn[nH]3)C(=O)N[C@@](c3ccc(OCCCC(F)(F)F)cc3)(C(F)(F)F)C2)s1` [Example 12] yielded a half-maximal inhibitory concentration (IC50) of 363 nM.

Compound `Cc1cnc(C2=C(c3nnn[nH]3)C(=O)N[C@@](c3ccc(OCCCC(F)(F)F)cc3)(C(F)(F)F)C2)s1` [Example 13] returned a 50% inhibitory concentration (IC50) of 19.4 nM.

For `CN(C)c1ccc(C2=C(c3nnn[nH]3)C(=O)N[C@@](c3ccc(OCCCC(F)(F)F)cc3)(C(F)(F)F)C2)cn1` [Example 14], 72.1 nM corresponded to half-maximal inhibition (IC50). The compound `O=C1N[C@@](c2ccc(OCCCCCC(F)(F)F)cc2F)(C(F)(F)F)CC(c2cnn(C3CC3)c2)=C1c1nnn[nH]1` [Example 15] registered a half-maximal inhibitory concentration (IC50) of 14.5 nM. As to `O=C1N[C@@](c2ccc(OCCCCCC(F)(F)F)cc2F)(C(F)(F)F)CC(c2ccn(C3CC3)n2)=C1c1nnn[nH]1` [Example 16], the 50% inhibitory concentration (IC50) was determined as 34 nM. Same read-out and setting: in the case of `O=C1N[C@@](c2ccc(OCCCC(F)(F)F)cc2)(C(F)(F)F)CC(c2ccn(C3CC3)n2)=C1c1nnn[nH]1` [Example 17] it was 16.6 nM; in that of `O=C1N[C@@](c2ccc(OCCCC(F)(F)F)cc2)(C(F)(F)F)CC(c2cnn(C3CC3)c2)=C1c1nnn[nH]1` [Example 18], 24.5 nM.

As for `O=C1N[C@@](c2ccc(OCCCC(F)(F)F)cc2)(C(F)(F)F)CC(c2ccn(CC3CC3)n2)=C1c1nnn[nH]1` [Example 19], the half-maximal inhibitory concentration (IC50) amounted to 31.8 nM. Still for that read-out and setting: with `O=C1N[C@@](c2ccc(OCCCC(F)(F)F)cc2)(C(F)(F)F)CC(c2ccn(C3CCC3)n2)=C1c1nnn[nH]1` [Example 20] the figure was 74.7 nM; with `O=C1N[C@@](c2ccc(OCCCC(F)(F)F)cc2)(C(F)(F)F)CC(c2ccn(CC3CCC3)n2)=C1c1nnn[nH]1` [Example 21], 135 nM. `O=C1N[C@@](c2ccc(CCCCC(F)(F)F)cc2)(C(F)(F)F)CC(c2ccn(CC3CC3)n2)=C1c1nnn[nH]1` [Example 22] came in with a half-maximal inhibitory concentration (IC50) of 1.2 nM. The same measure, in the same setting: with `CC(C)n1ccc(C2=C(c3nnn[nH]3)C(=O)N[C@@](c3ccc(CCCCC(F)(F)F)cc3)(C(F)(F)F)C2)n1` [Example 23] the figure was 2.1 nM. Consider `O=C1N[C@@](c2ccc(CCCCC(F)(F)F)cc2)(C(F)(F)F)CC(c2ccn(C3CC3)n2)=C1c1nnn[nH]1` [Example 24], for which the IC50 is 22.9 nM. The same measure, in the same setting: with `O=C1N[C@@](c2ccc(OCCCCCC(F)(F)F)cc2)(C(F)(F)F)CC(c2ccn(C3CC3)n2)=C1c1nnn[nH]1` [Example 25] the figure was 102 nM.
